{
  "source": "patent US20180110796A1",
  "about": "“COMPOSITIONS AND METHODS FOR THE TREATMENT OF HBV INFECTION” (Spring Bank Pharmaceuticals, Inc., priority 2015, published 2018)",
  "key": {"[1]": {"tested_on": "woodchuck hepatitis virus (WHV)", "assay": "Formula (IIa) in combination with entecavir, sequential oral treatment of chronic WHV carrier woodchucks (Example 3)", "format": "in vivo, woodchuck (Marmota monax)", "from_the_text": "Ten (10) woodchucks chronically infected with WHV were used. Woodchucks were born in captivity and were inoculated at 3 days of age with cWHV7P2a inoculum, then reared until 11 months of age. Prior to the study, woodchucks were confirmed as established chronic carriers of WHV based on established criteria including the presence of WHV surface antigen (WHsAg), antibody against […], and WHV DNA. Woodchucks used in the study were of both gender and approximately between 12 and 14 months of age at the start of the study.\nTwo (2) groups of five (5) chronic WHV carrier woodchucks each were used in the study:\nGroup 1 was orally treated for 4 weeks with ETV at a daily dose of 0.5 mg/kg starting at T0, followed by add-on treatment with Formula (IIa) for 12 weeks at a daily dose of 30 mg/kg. Woodchucks were then followed for a total of 24 weeks.\nGroup 2 was orally treated for 12 weeks with Formula (IIa) at a daily dose of 30 mg/kg starting at T0, followed by add-on treatment with ETV for 4 weeks at a daily dose of 0.5 mg/kg. Woodchucks were then also followed for a total of 24 weeks.\nFormula (IIa) was supplied as a pre-weighed powder in individual containers. An amount of powder sufficient to treat all 10 pre-weighed woodchucks per day with Formula (IIa) was mixed directly with woodchuck diet powder (Dyets Inc., Bethlehem, Pa.) and then suspended with HPLC water. The drug was orally administered with a dose syringe at T0 (Group 2) or after 4 weeks of treatment with ETV (Group 1), and thereafter every day for 12 weeks (84 days). Drug dosing was then followed by an extra 2 ml of woodchuck liquid diet to ensure complete consumption of Formula (IIa).\nETV was provided as powder. An amount of powder sufficient to treat all 10 woodchucks per day was suspended in isotonic saline at a concentration of 0.5 mg/ml. A volume (ml) of drug solution equivalent to the body weight (kg) of an individual woodchuck was then mixed with approximately 3-5 ml of woodchuck liquid diet and administered orally with a dose syringe at T0 (Group 1) or after 12 weeks of treatment with Formula (IIa) (Group 2), and thereafter every day for 4 weeks (28 days). ETV dosing was followed by an extra 2 ml of woodchuck liquid diet to ensure complete consumption of drug.\nPrior to administration of Formula (IIa) or ETV at T0, then weekly until the end of the study at week 24, whole blood samples were drawn from each woodchuck under ketamine/xylazine anesthesia for determinations of serum WHV DNA, WHsAg, and anti-WHs (see Summary Table below). […] Blood samples were kept at room temperature following collection and serum harvested upon observation of clot retraction. Harvested serum was transferred to microcentrifuge tubes and stored frozen at −70° C. until use.\nThe induction of an innate immune response in peripheral blood and liver of woodchucks by combination treatment with Formula (IIa) and ETV were determined via real time PCR-based assays. Whole blood samples were obtained prior to the start of treatment with Formula (IIa) at T0, and then at weeks 4, 10, 16, 20, and 24 (Group 1) or at weeks 6, 12, 16, 20, and 24 (Group 2) (see Summary Table below). Whole blood was drawn into PAXgene blood tubes at the indicated time points and stored at −70° C. until use. Total RNA was isolated from whole blood and treated with DNase using the PAXgene Blood miRNA Kit (Quiagen). This was followed by reverse transcription of mRNA into cDNA and amplification of host immune response genes by real time PCR. Woodchuck cytokine and interferon-stimulated genes included IFN-α, IFN-β, interleukin 6 (IL-6), 2′-5′-oligoadenylate synthetase 1 (OAS-1), interferon-induced 17 kDa protein (ISG15), and interferon gamma-induced protein 10 (IP-10or CXCL10). Woodchuck 18S rRNA expression was used to normalize target gene expression. […]"}, "[2]": {"assay": "Tolerability / drug safety of oral Formula (IIa) in chronic WHV carrier woodchucks (Example 2)", "format": "in vivo, woodchuck (Marmota monax)", "from_the_text": "All woodchucks used in this study were born in captivity and infected at 3 days of age with the cWHV7P2a inoculum containing WHV strain 7-11 (WHV7). cWHV7P2a has the same biological and virological characteristics as the parent cWHV7P2 inoculum as both were derived from cWHV7P1. Chronically infected animals were confirmed positive for serum WHV DNA and WHV surface antigen (WHsAg) and had undetectable antibodies against WHsAg (anti-WHs) at approximately 1 year post-infection. Absence of liver tumors in woodchucks with low gamma-glutamyl transferase (GGT) was confirmed by ultrasonography. Chronic WHV carrier woodchucks were assigned and stratified by gender, body weight, and by pretreatment serum markers (WHV DNA and WHsAg loads and serum GGT and sorbitol-dehydrogenase (SDH) levels) into two groups (n=5 each). Woodchucks were treated daily, orally with either a low (15 mg/kg) or high dose (30 mg/kg) of Formula (IIa) for 12 weeks. For select assays, blood and liver samples from five age-matched chronic WHV carrier woodchucks were included for comparison of basal expression levels of immune response genes in untreated animals with pretreated levels in Formula (IIa) treated animals.\nVarious measurements (body weight, body temperature, clinical chemistry, and hematology) were obtained weekly to monthly throughout the study to monitor drug safety. Serum and hepatic WHV parameters, host immune response parameters, and drug safety parameters were compared to the values at pretreatment and between both dose groups using unpaired Student's t-test with equal variance. P values of <0.05 were considered statistically significant."}, "[3]": {"details": "30 mg/kg daily oral, week 12, Group 2 before add-on ETV"}, "[4]": {"details": "15 and 30 mg/kg daily oral, 12 weeks"}},
  "data": [
    {"compound": "COC1[C@@H](OP(=O)(OC[C@H]2O[C@@H](n3cnc4c(N)ncnc43)C[C@H]2O)SCOC(=O)OC(C)C)[C@@H](CO)O[C@H]1n1ccc(=O)[nH]c1=O", "note": "(stereo partly shown) [Formula (IIa)]", "values": [
      {"measurement": "decline of serum WHsAg until the end of Formula (IIa) treatment", "setting": "[1]; [3]", "value": 1.49, "unit": "log 10"},
      {"measurement": "reduction of mean serum WHV DNA from pretreatment level at the end of Formula (IIa) treatment", "setting": "[1]; [3]", "value": 3.54, "unit": "log 10"},
      {"measurement": "weeks per approximately 1 log10 decline of serum WHV DNA", "setting": "[1]; Formula (IIa) 30 mg/kg, initial 6 weeks of treatment, Group 2", "value": "~3", "unit": "weeks"},
      {"measurement": "mortality during the study", "setting": "[2]; [4]", "value": "no mortality"},
      {"measurement": "tolerability (gross observations, body weights, body temperatures, hematology, clinical chemistry)", "setting": "[2]; [4]", "value": "well-tolerated"},
      {"measurement": "serum levels of ALT and AST during and following treatment", "setting": "[2]; both dose groups", "value": "essentially remained unchanged or declined slightly"},
      {"measurement": "serum SDH levels during administration", "setting": "[2]; especially initial 4-8 weeks, more pronounced in the high dose group", "value": "trend towards elevated"}
    ]}
  ]
}
